Source: ChEMBL document CHEMBL1649524, “Resistance selection studies comparing the activity of razupenem (PTZ601) to vancomycin and linezolid against eight methicillin-resistant and two methicillin-susceptible Staphylococcus aureus strains” (2009)
In brackets after ≈: the same amount, converted by molar mass.

How the values were obtained:
Type in all cases: functional
[1] = tested on: Staphylococcus aureus; assay: Antimicrobial activity against methicillin-susceptible Staphylococcus aureus 543 measured on day 35 by macrodilution method
[2] = tested on: Staphylococcus aureus; assay: Antimicrobial activity against vancomycin-intermediate Staphylococcus aureus 1287 after 18 passages by macrodilution method
[3] = tested on: Staphylococcus aureus; assay: Antimicrobial activity against vancomycin-intermediate Staphylococcus aureus 555 measured on day 20 by macrodilution method; details: Staphylococcus aureus, 555, 480 h
[4] = tested on: Staphylococcus aureus; assay: Antimicrobial activity against methicillin-susceptible Staphylococcus aureus 543 by macrodilution method
[5] = tested on: Staphylococcus aureus; assay: Antimicrobial activity against methicillin-resistant Staphylococcus aureus 547 measured after 10 antibiotic-free subculturing by macrodilution method
[6] = tested on: Staphylococcus aureus; assay: Antimicrobial activity against methicillin-resistant Staphylococcus aureus 547 by macrodilution method
[7] = tested on: Staphylococcus aureus; assay: Antimicrobial activity against vancomycin-intermediate Staphylococcus aureus 1287 measured on day 10 by macrodilution method; details: Staphylococcus aureus, 1287, 240 h
[8] = tested on: Staphylococcus aureus; assay: Antimicrobial activity against heterogeneous vancomycin-intermediate Staphylococcus aureus 168 measured on day 10 by macrodilution method; details: Staphylococcus aureus, 168, 240 h
[9] = tested on: Staphylococcus aureus; assay: Antimicrobial activity against methicillin-susceptible Staphylococcus aureus 540 measured on day 10 by macrodilution method; details: Staphylococcus aureus, 540, 240 h
[10] = tested on: Staphylococcus aureus; assay: Antimicrobial activity against vancomycin-intermediate Staphylococcus aureus 555 measured on day 35 by macrodilution method
[11] = tested on: Staphylococcus aureus; assay: Antimicrobial activity against methicillin-susceptible Staphylococcus aureus 540 measured on day 50 by macrodilution method
[12] = tested on: Staphylococcus aureus; assay: Antimicrobial activity against methicillin-resistant Staphylococcus aureus 547 measured on day 15 by macrodilution method; details: Staphylococcus aureus, 547, 360 h
[13] = tested on: Staphylococcus aureus; assay: Antimicrobial activity against vancomycin-resistant Staphylococcus aureus 509 measured on day 10 by macrodilution method; details: Staphylococcus aureus, 509, 240 h
[14] = tested on: Staphylococcus aureus; assay: Antimicrobial activity against vancomycin-resistant Staphylococcus aureus 510 measured on day 15 by macrodilution method; details: Staphylococcus aureus, 510, 360 h
[15] = tested on: Staphylococcus aureus; assay: Antimicrobial activity against vancomycin-intermediate Staphylococcus aureus 555 by macrodilution method
[16] = tested on: Staphylococcus aureus; assay: Antimicrobial activity against methicillin-resistant Staphylococcus aureus 525 measured on day 10 by macrodilution method; details: Staphylococcus aureus, 525, 240 h
[17] = tested on: Staphylococcus aureus; assay: Antimicrobial activity against methicillin-resistant Staphylococcus aureus 525 by macrodilution method
[18] = tested on: Staphylococcus aureus; assay: Antimicrobial activity against methicillin-susceptible Staphylococcus aureus 540 by macrodilution method
[19] = tested on: Staphylococcus aureus; assay: Antimicrobial activity against vancomycin-resistant Staphylococcus aureus 509 measured on day 40 by macrodilution method
[20] = tested on: Staphylococcus aureus; assay: Antimicrobial activity against methicillin-susceptible Staphylococcus aureus 543 measured on day 5 by macrodilution method; details: Staphylococcus aureus, 543, 120 h
[21] = tested on: Staphylococcus aureus; assay: Antimicrobial activity against heterogeneous vancomycin-intermediate Staphylococcus aureus 873 measured after 10 antibiotic-free subculturing by macrodilution method
[22] = tested on: Staphylococcus aureus; assay: Antimicrobial activity against methicillin-susceptible Staphylococcus aureus 540 after 49 passages by macrodilution method
[23] = tested on: Staphylococcus aureus; assay: Antimicrobial activity against methicillin-resistant Staphylococcus aureus 547 measured on day 40 by macrodilution method
[24] = tested on: Staphylococcus aureus; assay: Antimicrobial activity against vancomycin-intermediate Staphylococcus aureus 1287 measured on day 20 by macrodilution method; details: Staphylococcus aureus, 1287, 480 h
[25] = tested on: Staphylococcus aureus; assay: Antimicrobial activity against vancomycin-resistant Staphylococcus aureus 510 measured on day 20 by macrodilution method; details: Staphylococcus aureus, 510, 480 h
[26] = tested on: Staphylococcus aureus; assay: Antimicrobial activity against methicillin-susceptible Staphylococcus aureus 543 measured on day 10 by macrodilution method; details: Staphylococcus aureus, 543, 240 h
[27] = tested on: Staphylococcus aureus; assay: Antimicrobial activity against vancomycin-intermediate Staphylococcus aureus 1287 measured on day 25 by macrodilution method; details: Staphylococcus aureus, 1287, 600 h
[28] = tested on: Staphylococcus aureus; assay: Antimicrobial activity against vancomycin-intermediate Staphylococcus aureus 1287 measured on day 30 by macrodilution method
[29] = tested on: Staphylococcus aureus; assay: Antimicrobial activity against heterogeneous vancomycin-intermediate Staphylococcus aureus 873 measured on day 10 by macrodilution method; details: Staphylococcus aureus, 873, 240 h
[30] = tested on: Staphylococcus aureus; assay: Antimicrobial activity against vancomycin-intermediate Staphylococcus aureus 555 measured on day 10 by macrodilution method; details: Staphylococcus aureus, 555, 240 h
[31] = tested on: Staphylococcus aureus; assay: Antimicrobial activity against methicillin-susceptible Staphylococcus aureus 543 measured on day 15 by macrodilution method; details: Staphylococcus aureus, 543, 360 h
[32] = tested on: Staphylococcus aureus; assay: Antimicrobial activity against vancomycin-intermediate Staphylococcus aureus 555 measured on day 15 by macrodilution method; details: Staphylococcus aureus, 555, 360 h
[33] = tested on: Staphylococcus aureus; assay: Antimicrobial activity against methicillin-resistant Staphylococcus aureus 547 measured on day 35 by macrodilution method
[34] = tested on: Staphylococcus aureus; assay: Antimicrobial activity against vancomycin-resistant Staphylococcus aureus 509 measured on day 5 by macrodilution method; details: Staphylococcus aureus, 509, 120 h
[35] = tested on: Staphylococcus aureus; assay: Antimicrobial activity against vancomycin-resistant Staphylococcus aureus 510 measured on day 50 by macrodilution method
[36] = tested on: Staphylococcus aureus; assay: Antimicrobial activity against methicillin-susceptible Staphylococcus aureus 540 measured on day 30 by macrodilution method
[37] = tested on: Staphylococcus aureus; assay: Antimicrobial activity against vancomycin-resistant Staphylococcus aureus 510 measured on day 45 by macrodilution method
[38] = tested on: Staphylococcus aureus; assay: Antimicrobial activity against methicillin-susceptible Staphylococcus aureus 543 after 50 passages by macrodilution method
[39] = tested on: Staphylococcus aureus; assay: Antimicrobial activity against vancomycin-resistant Staphylococcus aureus 510 measured on day 25 by macrodilution method; details: Staphylococcus aureus, 510, 600 h
[40] = tested on: Staphylococcus aureus; assay: Antimicrobial activity against vancomycin-intermediate Staphylococcus aureus 555 measured on day 30 by macrodilution method
[41] = tested on: Staphylococcus aureus; assay: Antimicrobial activity against vancomycin-resistant Staphylococcus aureus 509 measured on day 50 by macrodilution method
[42] = tested on: Staphylococcus aureus; assay: Antimicrobial activity against methicillin-resistant Staphylococcus aureus 547 measured on day 50 by macrodilution method
[43] = tested on: Staphylococcus aureus; assay: Antimicrobial activity against methicillin-susceptible Staphylococcus aureus 540 measured on day 40 by macrodilution method
[44] = tested on: Staphylococcus aureus; assay: Antimicrobial activity against methicillin-resistant Staphylococcus aureus 547 measured on day 20 by macrodilution method; details: Staphylococcus aureus, 547, 480 h
[45] = tested on: Staphylococcus aureus; assay: Antimicrobial activity against vancomycin-resistant Staphylococcus aureus 510 measured on day 30 by macrodilution method
[46] = tested on: Staphylococcus aureus; assay: Antimicrobial activity against vancomycin-resistant Staphylococcus aureus 509 measured on day 20 by macrodilution method; details: Staphylococcus aureus, 509, 480 h
[47] = tested on: Staphylococcus aureus; assay: Antimicrobial activity against vancomycin-intermediate Staphylococcus aureus 555 measured on day 45 by macrodilution method
[48] = tested on: Staphylococcus aureus; assay: Antimicrobial activity against vancomycin-intermediate Staphylococcus aureus 1287 measured on day 5 by macrodilution method; details: Staphylococcus aureus, 1287, 120 h
[49] = tested on: Staphylococcus aureus; assay: Antimicrobial activity against methicillin-resistant Staphylococcus aureus 525 measured on day 25 by macrodilution method; details: Staphylococcus aureus, 525, 600 h
[50] = tested on: Staphylococcus aureus; assay: Antimicrobial activity against methicillin-susceptible Staphylococcus aureus 540 measured on day 35 by macrodilution method

Question: Which results are given for `C[C@H]1C=C(c2csc(SC3=C(C(=O)O)N4C(=O)[C@H]([C@@H](C)O)[C@H]4[C@H]3C)n2)CN1` [RAZUPENEM]?
Answer: MIC [1]: 0.06 µg/mL (≈ 0.147 µM); MIC [2]: 0.5 µg/mL (≈ 1.23 µM); MIC [3]: 2 µg/mL (≈ 4.91 µM); MIC [4]: 0.016 µg/mL (≈ 0.0393 µM); MIC [5]: 0.125 µg/mL (≈ 0.307 µM); MIC [6]: 0.5 µg/mL (≈ 1.23 µM); MIC [7]: 0.25 µg/mL (≈ 0.613 µM); MIC [8]: 4 µg/mL (≈ 9.82 µM); MIC [9]: 0.016 µg/mL (≈ 0.0393 µM); MIC [10]: 4 µg/mL (≈ 9.82 µM); MIC [11]: 0.125 µg/mL (≈ 0.307 µM); MIC [12]: 2 µg/mL (≈ 4.91 µM); MIC [13]: 2 µg/mL (≈ 4.91 µM); MIC [14]: 2 µg/mL (≈ 4.91 µM); MIC [15]: 0.5 µg/mL (≈ 1.23 µM); MIC [16]: 4 µg/mL (≈ 9.82 µM); MIC [17]: 1 µg/mL (≈ 2.45 µM); MIC [18]: 0.016 µg/mL (≈ 0.0393 µM); MIC [19]: 4 µg/mL (≈ 9.82 µM); MIC [20]: 0.03 µg/mL (≈ 0.0736 µM); MIC [21]: 8 µg/mL (≈ 19.6 µM); MIC [22]: 0.125 µg/mL (≈ 0.307 µM); MIC [23]: 16 µg/mL (≈ 39.3 µM); MIC [24]: 0.5 µg/mL (≈ 1.23 µM); MIC [25]: 4 µg/mL (≈ 9.82 µM); MIC [26]: 0.03 µg/mL (≈ 0.0736 µM); MIC [27]: 0.5 µg/mL (≈ 1.23 µM); MIC [28]: 16 µg/mL (≈ 39.3 µM); MIC [29]: 2 µg/mL (≈ 4.91 µM); MIC [30]: 1 µg/mL (≈ 2.45 µM); MIC [31]: 0.03 µg/mL (≈ 0.0736 µM); MIC [32]: 2 µg/mL (≈ 4.91 µM); MIC [33]: 16 µg/mL (≈ 39.3 µM); MIC [34]: 2 µg/mL (≈ 4.91 µM); MIC [35]: 4 µg/mL (≈ 9.82 µM); MIC [36]: 4 µg/mL (≈ 9.82 µM); MIC [37]: 8 µg/mL (≈ 19.6 µM); MIC [38]: 0.06 µg/mL (≈ 0.147 µM); MIC [39]: 4 µg/mL (≈ 9.82 µM); MIC [40]: 8 µg/mL (≈ 19.6 µM); MIC [41]: 4 µg/mL (≈ 9.82 µM); MIC [42]: 16 µg/mL (≈ 39.3 µM); MIC [43]: 0.06 µg/mL (≈ 0.147 µM); MIC [44]: 4 µg/mL (≈ 9.82 µM); MIC [45]: 4 µg/mL (≈ 9.82 µM); MIC [46]: 4 µg/mL (≈ 9.82 µM); MIC [47]: 8 µg/mL (≈ 19.6 µM); MIC [48]: 0.25 µg/mL (≈ 0.613 µM); MIC [49]: 4 µg/mL (≈ 9.82 µM); MIC [50]: 0.06 µg/mL (≈ 0.147 µM)
